Assay results: patent publication US7115658B2 (priority 2002, dated 2006)

target: T1, Recombinant HCV polymerase (Hepatitis C virus genotype 1b, UniProt P26663); test: HCV Polymerase Inhibition Assay; assay type: biochemical; conditions: primer/template-directed transcription, 30 minutes at 30° C.; category symbol
T1 construct: 2.5 pmoles (0.15 μg) HCV polymerase protein
Method: The above-described compounds were tested for activity with HCV polymerase. Recombinant HCV polymerase was tested for its ability to perform primer/template-directed transcription in assays that contained 30 mM tris-HCl pH 7.2, 10 mM MgCl2, 20 mM NaCl, 1 mM Dithiothreitol (DTT), 0.05% Tween-20, 1% glycerol, 5 pmoles biotin-dG12 (primer), 0.5 pmoles poly(rC)300 (template), 1 μM GTP, 0.1–0.3 uCi α-^32P-GTP, and 2.5 pmoles (0.15 μg) HCV polymerase protein in a final volume of 75 μL. Reactions were initiated by addition of enzyme and incubated 30 minutes at 30° C. Reactions were stopped by addition of 33 mM EDTA, and polynucleotide products were collected by filtration through Diethylaminoethyl (DE) Filtermat papers (Wallac). Unincorporated triphosphate was removed by washing the filters with 5% dibasic sodium phosphate. The filters were counted in a Packard Tri-Lux Microbeta scintillation counter (Packard Bioscience, Meriden, Conn.). Compounds to be tested were added at various concentrations, e.g., 1 μm to 50 μm, from stocks in 10% DMSO-water (final DMSO is 1% in reaction).
IC50 values were estimated from the primary cpm data (collected in triplicate) using the formula: cpm (I)=cpm (no inhibitor)(1−([I]/([I]+IC50))). An IC50 value represents the concentration (in μM) of a compound that provides 50% inhibition of polymerase-directed transcription in the above assay. A percent inhibition value is expressed for a compound where it was impractical to calculate an IC50 value with available data. If the IC50 estimated by the above equation was less than 200 nM, it was recalculated using the following equation, which takes into account the enzyme concentration (30 nM) in the assay: cpm(I)=cpm(no inhibitor)(1−((((I+IC50+30e−9)−sqrt(((I+IC50+30e−9)^2)−4×30e−9×I)))/((2) (30e−9))). Curve fitting was performed using the program KaleidaGraph (Synergy Software, Reading, Pa.).

T1 sequence (P26663 2420-3010): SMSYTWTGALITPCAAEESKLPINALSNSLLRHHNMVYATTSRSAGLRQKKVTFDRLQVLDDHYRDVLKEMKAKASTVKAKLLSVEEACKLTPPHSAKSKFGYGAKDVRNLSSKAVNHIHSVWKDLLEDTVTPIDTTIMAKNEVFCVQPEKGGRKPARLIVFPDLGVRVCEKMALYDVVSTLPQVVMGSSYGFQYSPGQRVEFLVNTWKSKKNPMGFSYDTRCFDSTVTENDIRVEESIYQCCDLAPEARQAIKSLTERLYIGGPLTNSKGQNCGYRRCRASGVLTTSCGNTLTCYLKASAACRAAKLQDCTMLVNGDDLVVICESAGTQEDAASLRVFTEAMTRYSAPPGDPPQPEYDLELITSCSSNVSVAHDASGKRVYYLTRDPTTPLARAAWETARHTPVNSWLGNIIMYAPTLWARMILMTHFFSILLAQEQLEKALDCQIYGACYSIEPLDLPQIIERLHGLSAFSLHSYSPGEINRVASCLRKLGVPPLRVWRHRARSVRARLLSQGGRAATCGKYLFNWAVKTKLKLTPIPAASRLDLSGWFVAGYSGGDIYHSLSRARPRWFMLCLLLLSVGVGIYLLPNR

First: CCCOc1ccc(CCC2(C3CCCC3)CC(=O)CC(=O)O2)cc1F (stereo not drawn) [Example 72, 6-Cyclopentyl-6-[2-(3-fluoro-4-propoxy-phenyl)-ethyl]-dihydro-pyran-2,4-dione]
Second: CC(C)Oc1ccc(CCC2(C3CCCC3)CC(=O)CC(=O)O2)cc1F (stereo not drawn) [Example 73, 6-Cyclopentyl-6-[2-(3-fluoro-4-isopropoxy-phenyl)-ethyl]-dihydro-pyran-2,4-dione]
The IC50 of the first is higher: 1 to 10 µM for the first, < 1 µM for the second. The second is the more potent here.

`COc1cc(F)c(CCC2(C3CCCC3)CC(=O)CC(=O)O2)cc1F` (stereo not drawn) [Example 74, 6-Cyclopentyl-6-[2-(2,5-difluoro-4-methoxy-phenyl)-ethyl]-dihydro-pyran-2,4-dione] and `O=C1CC(=O)OC(CCc2ccc(OC3CCCC3)c(F)c2)(C2CCCC2)C1` (stereo not drawn) [Example 77, 6-Cyclopentyl-6-[2-(4-cyclopentyloxy-3-fluoro-phenyl)-ethyl]-dihydro-pyran-2,4-dione] fall in the same range of IC50: 1 to 10 µM for the first, 1 to 10 µM for the second.

First: CCSc1ccc(CCC2(C3CCCC3)CC(=O)CC(=O)O2)cc1 (stereo not drawn) [Example 75, 6-Cyclopentyl-6-[2-(4-ethylsulfanyl-phenyl)-ethyl]-dihydro-pyran-2,4-dione]
Second: CN(C)S(=O)(=O)c1ccc(CCC2(C3CCCC3)CC(=O)CC(=O)O2)cc1 (stereo not drawn) [Example 76, 4-[2-(2-Cyclopentyl-4,6-dioxo-tetrahydro-pyran-2-yl)-ethyl]-dimethyl-benzenesulfonamide]
The IC50 of the first is lower: 1 to 10 µM for the first, 10 to 50 µM for the second. The first is the more potent here.

`O=C1CC(=O)OC(CCc2ccc(C3OCCO3)c(F)c2)(C2CCCC2)C1` (stereo not drawn) [Example 78, 6-Cyclopentyl-6-[2-(4-[1,3]dioxolan-2-yl-3-fluoro-phenyl)-ethyl]-dihydro-pyran-2,4-dione] and `O=C1CC(=O)OC(CCc2ccc(N3CCCC3=O)c(F)c2)(C2CCCC2)C1` (stereo not drawn) [Example 80, 6-Cyclopentyl-6-{2-[3-fluoro-4-(2-oxo-pyrrolidin-1-yl)-phenyl]-ethyl}-dihydro-pyran-2,4-dione] fall in the same range of IC50: 1 to 10 µM for the first, 1 to 10 µM for the second.

First: O=C1CC(=O)OC(CCc2ccc(N3CCCC3=O)cc2)(C2CCCC2)C1 (stereo not drawn) [Example 79, 6-Cyclopentyl-6-{2-[4-(2-oxo-pyrrolidin-1-yl)-phenyl]-ethyl}-dihydro-pyran-2,4-dione]
Second: CC1(c2ccc(CCC3(C4CCCC4)CC(=O)CC(=O)O3)cc2Cl)CC(=O)CC(=O)O1 (stereo not drawn) [Example 82, 6-Cyclopentyl-[6-(2-Chloro-phenyl)-6-methyl-dihydro-pyran-2,4-dione]-dihydro-pyran-2,4-dione]
The IC50 of the first is higher: 1 to 10 µM for the first, < 1 µM for the second. The second is the more potent here.

First: CC(C)Oc1ccc(CCC2(C3CCCC3)CC(=O)CC(=O)O2)cc1Cl (stereo not drawn) [Example 81, 6-[2-(3-Chloro-4-isopropoxy-phenyl)-ethyl]-6-cyclopentyl-dihydro-pyran-2,4-dione]
Second: COc1ccc(CCC2(C3CCCC3)CC(O)=C(Cl)C(=O)O2)cc1 (stereo not drawn) [Example 87, 3-Chloro-6-cyclopentyl-4-hydroxy-6-[2-(4-methoxyphenyl)ethyl]-5,6-dihydropyran-2-one]
The IC50 of the first is lower: < 1 µM for the first, 10 to 50 µM for the second.

`O=C1OC(CCc2ccc(O)cc2)(C2CCCC2)CC(O)=C1Sc1ccc2ccccc2c1` (stereo not drawn) [Example 83] and `O=C1OC(CCc2ccc(O)cc2)(C2CCCC2)CC(O)=C1Sc1cccc2ccccc12` (stereo not drawn) [Example 85, 6-Cyclopentyl-4-hydroxy-6-[2-(4-hydroxyphenyl)ethyl]-3-(naphthalen-1-ylsulfanyl)-5,6-dihydropyran-2-one] fall in the same range of IC50: 1 to 10 µM for the first, 1 to 10 µM for the second.

`O=C1OC(CCc2ccc(O)cc2)(C2CCCC2)CC(O)=C1SCc1ccccc1` (stereo not drawn) [Example 84, 3-Benzylsulfanyl-6-cyclopentyl-4-hydroxy-6-[2-(4-hydroxyphenyl)ethyl]-5,6-dihydropyran-2-one] and `O=C1OC(CCc2ccc(OCc3ccccc3)cc2)(C2CCCC2)CC(O)=C1Sc1cccc2ccccc12` (stereo not drawn) [Example 86, 6-[2-(4-Benzyloxyphenyl)ethyl]-6-cyclopentyl-4-hydroxy-3-(napthalen-1-ylsulfanyl)-5,6-dihydropyran-2-one] fall in the same range of IC50: 1 to 10 µM for the first, 1 to 10 µM for the second.

First: O=C1CC(CCc2ccccc2)(C2CCCC2)OC(=O)C1Cc1ccccc1 (stereo not drawn) [Example 88, 3-benzyl-6-cyclopentyl-6-(2-phenylethyl)dihydro-2H-pyran-2,4(3H)-dione]
Second: COc1ccc(CCC2(C3CCCC3)CC(O)=C(Sc3nc4nc(C)cc(C)n4n3)C(=O)O2)cc1 (stereo not drawn) [Example 92, 6-[2-(4-methoxyphenyl)ethyl]-6-cyclopentyl-3-[(5,7-dimethyl[1,2,4]triazolo[1,5-a]pyrimidin-2-yl)thio]-4-hydroxy-5,6-dihydro-2H-pyran-2-one]
The IC50 of the first is higher: 10 to 50 µM for the first, < 1 µM for the second. The second is the more potent here.

Compared with `Cc1cc(SC2=C(O)CC(C)(C)OC2=O)c(C(C)(C)C)cc1N` [Example 89, 3-[(4-amino-2-tert-butyl-5-methylphenyl)thio]-4-hydroxy-6,6-dimethyl-5,6-dihydro-2H-pyran-2-one], `COc1cc(OC)c(CCC2(C3CCCC3)CC(O)=C(Sc3nnc(O)n3C)C(=O)O2)cc1Cl` (stereo not drawn) [Example 95, 6-[2(5-chloro-2,4-dimethoxyphenyl)ethyl]-6-cyclopentyl-4-hydroxy-3-[(5-hydroxy-4-methyl-4H-1,2,4-triazol-3-yl)thio]-5,6-dihydro-2H-pyran-2-one] is lower in IC50: > 50 µM for the first, < 1 µM for the second.

`COc1cc(OC)c(CCC2(C3CCCC3)CC(O)=C(Cl)C(=O)O2)cc1Cl` (stereo not drawn) [Example 90] and `COc1cc(OC)c(CCC2(C3CCCC3)CC(O)=C(Sc3nc[nH]n3)C(=O)O2)cc1Cl` (stereo not drawn) [Example 93, 6-[2-(5-Chloro-2,4-dimethoxyphenyl)ethyl]-6-cyclopentyl-4-hydroxy-3-(1H-1,2,4-triazol-3-ylthio)-5,6-dihydro-2H-puran-2-one] cannot be ordered by IC50: < 1 µM for the first, < 1 µM for the second.

`COc1cc(OC)c(CCC2(C3CCCC3)CC(O)=C(Sc3nc4nc(C)cc(C)n4n3)C(=O)O2)cc1Cl` (stereo not drawn) [Example 91, 6-[2-(5-Chloro-2,4-dimethoxyphenyl)ethyl]-6-cyclopentyl-3-[(5,7-dimethyl[1,2,4]triazolo[1,5-a]pyrimidin-2-yl)thio]-4-hydroxy-5,6-dihydro-2H-pyran-2-one] and `COc1cc(OC)c(CCC2(C3CCCC3)CC(O)=C(Sc3nc(N)c4cn[nH]c4n3)C(=O)O2)cc1Cl` (stereo not drawn) [Example 97, 3-[(4-amino-1H-pyrazolo[3,4-d]pyrimidin-6-yl)thio]-6-[2-(5-chloro-2,4-dimethoxyphenyl)ethyl]-6-cyclopentyl-4-hydroxy-5,6-dihydro-2H-pyran-2-one] cannot be ordered by IC50: < 1 µM for the first, < 1 µM for the second.

`COc1cc(OC)c(CCC2(C3CCCC3)CC(O)=C(Sc3ccc(C(=O)O)cn3)C(=O)O2)cc1Cl` (stereo not drawn) [Example 94, 6-({6-[2-(5-chloro-2,4-dimethoxyphenyl)ethyl]-6-cyclopentyl-4-hydroxy-2-oxo-5,6-dihydro-2H-pyran-3-yl}thio)nicotinic acid] and `COc1cc(OC)c(CCC2(C3CCCC3)CC(O)=C(Sc3ncc(CO)n3C)C(=O)O2)cc1Cl` (stereo not drawn) [Example 98, 6-[2-(5-chloro-2,4-dimethoxyphenyl)ethyl]-6-cyclopentyl-4-hydroxy-3-([5-(hydroxymethyl)-1-methyl-1H-imidazol-2-yl]thio)-5,6-dihydro-2H-pyran-2-one] cannot be ordered by IC50: < 1 µM for the first, < 1 µM for the second.

In the case of `COc1cc(OC)c(CCC2(C3CCCC3)CC(O)=C(Sc3nnc(-c4cccs4)n3C)C(=O)O2)cc1Cl` (stereo not drawn) [Example 96, 6-[2-(5-chloro-2,4-dimethoxyphenyl)ethyl]-6-cyclopentyl-4-hydroxy-3-[(4-methyl-5-thien-2-yl 4H-1,2,4-triazol-3-yl)thio]-5,6-dihydro-2-one], the IC50 is reported as < 1 µM.
